Experimental data reported in US11072598B2, “Somatostatin modulators and uses thereof” (CRINETICS PHARMACEUTICALS, INC., priority 2017, dated 2021).
pEC50: −log10 of the molar value.

Target: T1, human somatostatin receptor subtype 2 (Homo sapiens, UniProt P30874)
T1 construct: expressed in transfected cells
Assay: cAMP functional assay for SSTR2 agonists
Format: cell-based
Settings: inhibition of cAMP activities via human SST2 receptor (SSTR2), CHO-K1 cells; read-out: EC50
Excerpt: General overview: All five SSTR subtypes are Gi coupled G-protein coupled receptors (GPCRs) that lead to decreases in intracellular cyclic AMP (cAMP) when activated by an agonist. Therefore, measurement of intracellular cAMP levels can be used to assess whether compounds of the invention are agonists of SSTR subtypes (John Kelly, Troy Stevens, W. Joseph Thompson, and Roland Seifert, Current Protocols in Pharmacology, 2005, 2.2.1-2.2). One example of an intracellular cAMP assay is described below. cAMP assay protocol:
Four days prior to the assay, 5,000 Chinese hamster ovary cells (CHO-K1, ATCC #CCL-61) stably expressing the human somatostatin receptor subtype 2 are plated in each well of a 96-well tissue culture-treated plate in Ham's F12 growth media (ThermoFisher #10-080-CM) supplemented with 10% donor bovine serum (Gemini Bio-Products #100-506), 100 U/mL penicillin; 100 ug/mL streptomycin; 2 mM L-glutamine (Gemini Bio-Products #400-110) and 0.2 mg/mL hygromycin B (GoldBio #31282-04-9). The cells are cultured at 37° C., 5% CO2 and 95% humidity. On the day of the assay, the media is aspirated and the cells are treated with 50 μL of 1.6 μM NKH477 (Sigma #N3290) plus various dilutions of compounds of the invention in assay buffer [1× Hank's Balanced Salt Solution (ThermoFisher #SH3058802), 0.5 mM HEPES pH 7.4, 0.1% bovine serum albumin, 0.2 mM 3-Isobutyl-1-methylxanthine (IBMX, VWR #200002-790)]. The cells are incubated for 20 minutes at 37° C. […] The cells are treated with 50 μL of lysis buffer (HRTF cAMP kit, Cisbio). The lysate is transferred to 384-well plates and cAMP detection and visualization antibodies are added and incubated for 1-24 hours at room temperature. The time-resolved fluorescent signal is read with a Tecan M1000Pro multiplate reader. The intracellular cAMP concentrations are calculated by regression to a standard curve and are plotted vs. the concentration of the compounds of the invention and the EC50 of the compounds are calculated using standard methods. All data manipluations are in GraphPad Prism v6.

T1 sequence (P30874 whole entry): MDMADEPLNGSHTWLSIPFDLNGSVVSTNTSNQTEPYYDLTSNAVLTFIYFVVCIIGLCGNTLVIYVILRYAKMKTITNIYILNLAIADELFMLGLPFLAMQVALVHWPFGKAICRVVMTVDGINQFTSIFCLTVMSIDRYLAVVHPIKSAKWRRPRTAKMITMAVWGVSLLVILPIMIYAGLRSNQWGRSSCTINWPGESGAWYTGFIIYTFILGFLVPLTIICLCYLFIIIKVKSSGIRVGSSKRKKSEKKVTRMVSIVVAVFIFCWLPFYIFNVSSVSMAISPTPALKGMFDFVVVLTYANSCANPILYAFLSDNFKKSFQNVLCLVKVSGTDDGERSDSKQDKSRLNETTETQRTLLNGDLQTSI

Row | pEC50 | SMILES
1 | > 8.00 | Cc1cc(F)cc(-c2cnnc(-c3cc4cc(Cl)ccc4[nH]3)c2N2CCC(N)CC2)c1 [Compound 3-1, 1-[3-(5-chloro-1H-indol-2-yl)-5-(3-fluoro-5-methylphenyl)pyridazin-4-yl]piperidin-4-amine]
2 | > 8.00 | Cc1cc(F)cc(-c2cnnc(-c3cc4ccc(Cl)cc4[nH]3)c2N2CCC(N)CC2)c1 [Compound 3-2, 1-[3-(6-chloro-1H-indol-2-yl)-5-(3-fluoro-5-methylphenyl)pyridazin-4-yl]piperidin-4-amine]
3 | > 8.00 | Cc1cc(F)cc(-c2cnnc(-c3nc4cc(Cl)ccc4[nH]3)c2N2CCC(N)CC2)c1 [Compound 3-3, 1-[3-(5-chloro-1H-1,3-benzodiazol-2-yl)-5-(3-fluoro-5-methylphenyl)pyridazin-4-yl]piperidin-4-amine]
4 | > 8.00 | Cc1cc(F)cc(-c2cnnc(-c3cc4ccc(F)cc4[nH]3)c2N2CCC(N)CC2)c1 [Compound 3-4, 1-[3-(6-fluoro-1H-indol-2-yl)-5-(3-fluoro-5-methylphenyl)pyridazin-4-yl]piperidin-4-amine]
5 | > 8.00 | COc1ccc2cc(-c3nncc(-c4cc(C)cc(F)c4)c3N3CCC(N)CC3)[nH]c2c1 [Compound 3-5, 1-[5-(3-fluoro-5-methylphenyl)-3-(6-methoxy-1H-indol-2-yl)pyridazin-4-yl]piperidin-4-amine]
6 | > 8.00 | Cc1cc(F)cc(-c2cnnc(-c3cc4c(Cl)cccc4[nH]3)c2N2CCC(N)CC2)c1 [Compound 3-6, 1-[3-(4-chloro-1H-indol-2-yl)-5-(3-fluoro-5-methylphenyl)pyridazin-4-yl]piperidin-4-amine]
7 | > 8.00 | Cc1cc(F)cc(-c2cnnc(-c3cc4cccc(Cl)c4[nH]3)c2N2CCC(N)CC2)c1 [Compound 3-7, 1-[3-(7-chloro-1H-indol-2-yl)-5-(3-fluoro-5-methylphenyl)pyridazin-4-yl]piperidin-4-amine]
8 | > 8.00 | Cc1cc(F)cc(-c2cnnc(-c3cc4cc(F)ccc4[nH]3)c2N2CCC(N)CC2)c1 [Compound 3-8, 1-[3-(5-fluoro-1H-indol-2-yl)-5-(3-fluoro-5-methylphenyl)pyridazin-4-yl]piperidin-4-amine]
9 | > 8.00 | COc1ccc2[nH]c(-c3nncc(-c4cc(C)cc(F)c4)c3N3CCC(N)CC3)cc2c1 [Compound 3-9, 1-[5-(3-fluoro-5-methylphenyl)-3-(5-methoxy-1H-indol-2-yl)pyridazin-4-yl]piperidin-4-amine]
10 | > 8.00 | COc1ccc2[nH]c(-c3nncc(-c4cc(C)cc(F)c4)c3N3CCC(N)CC3)nc2c1 [Compound 3-10, 1-[5-(3-fluoro-5-methylphenyl)-3-(5-methoxy-1H-1,3-benzodiazol-2-yl)pyridazin-4-yl]piperidin-4-amine]
11 | > 8.00 | Cc1cc(F)cc(-c2cnnc(-c3cc4ccc(C#N)cc4[nH]3)c2N2CCC(N)CC2)c1 [Compound 3-12, 2-[4-(4-aminopiperidin-1-yl)-5-(3-fluoro-5-methylphenyl)pyridazin-3-yl]-1H-indole-6-carbonitrile]

The remaining lines, values behind:

Row | SMILES | pEC50
12 | N#CCOc1cc(F)cc2nc(-c3c(N)ncc(-c4cc(F)cc(Cl)c4)c3N3CCC(N)CC3)[nH]c12 [Compound 1-87, 2-({2-[2-amino-4-(4-aminopiperidin-1-yl)-5-(3-chloro-5-fluorophenyl)pyridin-3-yl]-5-fluoro-1H-1,3-benzodiazol-7-yl}oxy)acetonitrile] | > 8.00
13 | N#CCOc1cc(F)c2[nH]c(-c3c(N)ncc(-c4cc(F)cc(Cl)c4)c3N3CCC(N)CC3)nc2c1 [Compound 1-88, 2-({2-[2-amino-4-(4-aminopiperidin-1-yl)-5-(3-chloro-5-fluorophenyl)pyridin-3-yl]-7-fluoro-1H-1,3-benzodiazol-5-yl}oxy)acetonitrile] | > 8.00
14 | CNc1ncc(-c2cc(C)cc(F)c2)c(N2CCC(N)CC2)c1-c1nc2cc(C#N)cc(F)c2[nH]1 [Compound 1-89, 2-[4-(4-aminopiperidin-1-yl)-5-(3-fluoro-5-methylphenyl)-2-(methylamino)pyridin-3-yl]-7-fluoro-1H-1,3-benzodiazole-5-carbonitrile] | > 8.00
15 | COc1cc(F)cc2nc(-c3c(N)ncc(-c4cc(F)cc(Cl)c4)c3N3CCC(N)CC3)[nH]c12 [Compound 1-90, 4-(4-aminopiperidin-1-yl)-5-(3-chloro-5-fluorophenyl)-3-(5-fluoro-7-methoxy-1H-1,3-benzodiazol-2-yl)pyridin-2-amine] | > 8.00
16 | COc1cc(F)cc2nc(-c3c(N)ncc(-c4ccc(F)c(C)c4)c3N3CCC(N)CC3)[nH]c12 [Compound 1-91, 4-(4-aminopiperidin-1-yl)-5-(4-fluoro-3-methylphenyl)-3-(5-fluoro-7-methoxy-1H-1,3-benzodiazol-2-yl)pyridin-2-amine] | > 8.00
17 | COc1cc(F)cc2nc(-c3c(N)ncc(-c4cccc(Cl)c4)c3N3CCC(N)CC3)[nH]c12 [Compound 1-92, 4-(4-aminopiperidin-1-yl)-5-(3-chlorophenyl)-3-(5-fluoro-7-methoxy-1H-1,3-benzodiazol-2-yl)pyridin-2-amine] | > 8.00
18 | COc1cc(F)cc2nc(-c3c(N)ncc(-c4cccc(C)c4)c3N3CCC(N)CC3)[nH]c12 [Compound 1-93, 4-(4-aminopiperidin-1-yl)-3-(5-fluoro-7-methoxy-1H-1,3-benzodiazol-2-yl)-5-(3-methylphenyl)pyridin-2-amine] | > 8.00
19 | COc1cc(Cl)cc2nc(-c3c(N)ncc(-c4cc(C)cc(F)c4)c3N3CCC(N)CC3)[nH]c12 [Compound 1-94, 4-(4-aminopiperidin-1-yl)-3-(5-chloro-7-methoxy-1H-1,3-benzodiazol-2-yl)-5-(3-fluoro-5-methylphenyl)pyridin-2-amine] | > 8.00
20 | Cc1cc(F)cc(-c2cnc(O)c(-c3nc4cc(Cl)ccc4[nH]3)c2N2CCC(N)CC2)c1 [Compound 2-4, 4-(4-aminopiperidin-1-yl)-3-(5-chloro-1H-1,3-benzodiazol-2-yl)-5-(3-fluoro-5-methylphenyl)pyridin-2-ol] | > 8.00
21 | COc1ncc(-c2cc(C)cc(C#N)c2)c(N2CCC(N)CC2)c1-c1nc2cc(Cl)ccc2[nH]1 [Compound 2-6, 3-[4-(4-aminopiperidin-1-yl)-5-(5-chloro-1H-1,3-benzodiazol-2-yl)-6-methoxypyridin-3-yl]-5-methylbenzonitrile] | 7.00 to 8.00
22 | Cc1cc(F)cc(-c2cnc(O)c(-c3nc4cc(F)c(F)cc4[nH]3)c2N2CCC(N)CC2)c1 [Compound 2-7, 4-(4-aminopiperidin-1-yl)-3-(5,6-difluoro-1H-1,3-benzodiazol-2-yl)-5-(3-fluoro-5-methylphenyl)pyridin-2-ol] | 7.00 to 8.00
23 | COc1ncc(-c2cc(C)cc(F)c2)c(N2CCC(N)CC2)c1-c1nc2cc(C#N)ccc2[nH]1 [Compound 2-8, 2-[4-(4-aminopiperidin-1-yl)-5-(3-fluoro-5-methylphenyl)-2-methoxypyridin-3-yl]-1H-1,3-benzodiazole-5-carbonitrile] | > 8.00
24 | COc1ncc(-c2cc(C)cc(F)c2)c(N2CCC(N)CC2)c1-c1nc2cc(Cl)ncc2[nH]1 [Compound 2-9] | > 8.00
25 | Cc1cc(F)cc(-c2cnc(O)c(-c3nc4cc(F)ccc4[nH]3)c2N2CCC(N)CC2)c1 [Compound 2-10, 4-(4-aminopiperidin-1-yl)-3-(5-fluoro-1H-1,3-benzodiazol-2-yl)-5-(3-fluoro-5-methylphenyl)pyridin-2-ol] | 7.00 to 8.00
26 | Cc1cc(F)cc(-c2cnc(Cl)c(-c3nc4cc(F)ccc4[nH]3)c2N2CCC(N)CC2)c1 [Compound 2-11, 1-[2-chloro-3-(5-fluoro-1H-1,3-benzodiazol-2-yl)-5-(3-fluoro-5-methylphenyl)pyridin-4-yl]piperidin-4-amine] | > 8.00
27 | COc1ncc(-c2cc(C)cc(Cl)c2)c(N2CCC(N)CC2)c1/C=N/OC(C)(C)C [Compound 2-12, 1-{3-[(1E)-[(tert-butoxy)imino]methyl]-5-(3-chloro-5-methylphenyl)-2-methoxypyridin-4-yl}piperidin-4-amine] | < 7.00
28 | COc1ncc(-c2cc(C)cc(F)c2)c(N2CCC(N)CC2)c1-c1nc2nc(Cl)ccc2[nH]1 [Compound 2-13, 1-(3-{5-chloro-1H-imidazo[4,5-b]pyridin-2-yl}-5-(3-fluoro-5-methylphenyl)-2-methoxypyridin-4-yl)piperidin-4-amine] | > 8.00
29 | COc1ncc(-c2cc(F)cc(F)c2)c(N2CCC(N)CC2)c1-c1nc2cc(Cl)ccc2[nH]1 [Compound 2-14, 1-[3-(5-chloro-1H-1,3-benzodiazol-2-yl)-5-(3,5-difluorophenyl)-2-methoxypyridin-4-yl]piperidin-4-amine] | 7.00 to 8.00
